Experimental data reported in ChEMBL document CHEMBL1201862, “PubChem BioAssay data set” (2004).
The source made the active and inactive calls.

Experiments:
[1] = target: MAP kinase-activated protein kinase 2 (Homo sapiens, UniProt P49137); format: functional;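 also: measured as one member of a kinome-wide kinase panel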
[2] = target: Serine/threonine-protein kinase pim-3 (Homo sapiens, UniProt Q86V86); format: functional;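 also: value obtained as one member of a broad kinase panel profiling effort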
Misshapen-like kinase 1 = Misshapen-like kinase 1 (Homo sapiens, UniProt Q8N4C8); format: functional;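 also: kinome panel screen with MINK as the panel member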
Sequence of Misshapen-like kinase 1 (Q8N4C8 whole entry): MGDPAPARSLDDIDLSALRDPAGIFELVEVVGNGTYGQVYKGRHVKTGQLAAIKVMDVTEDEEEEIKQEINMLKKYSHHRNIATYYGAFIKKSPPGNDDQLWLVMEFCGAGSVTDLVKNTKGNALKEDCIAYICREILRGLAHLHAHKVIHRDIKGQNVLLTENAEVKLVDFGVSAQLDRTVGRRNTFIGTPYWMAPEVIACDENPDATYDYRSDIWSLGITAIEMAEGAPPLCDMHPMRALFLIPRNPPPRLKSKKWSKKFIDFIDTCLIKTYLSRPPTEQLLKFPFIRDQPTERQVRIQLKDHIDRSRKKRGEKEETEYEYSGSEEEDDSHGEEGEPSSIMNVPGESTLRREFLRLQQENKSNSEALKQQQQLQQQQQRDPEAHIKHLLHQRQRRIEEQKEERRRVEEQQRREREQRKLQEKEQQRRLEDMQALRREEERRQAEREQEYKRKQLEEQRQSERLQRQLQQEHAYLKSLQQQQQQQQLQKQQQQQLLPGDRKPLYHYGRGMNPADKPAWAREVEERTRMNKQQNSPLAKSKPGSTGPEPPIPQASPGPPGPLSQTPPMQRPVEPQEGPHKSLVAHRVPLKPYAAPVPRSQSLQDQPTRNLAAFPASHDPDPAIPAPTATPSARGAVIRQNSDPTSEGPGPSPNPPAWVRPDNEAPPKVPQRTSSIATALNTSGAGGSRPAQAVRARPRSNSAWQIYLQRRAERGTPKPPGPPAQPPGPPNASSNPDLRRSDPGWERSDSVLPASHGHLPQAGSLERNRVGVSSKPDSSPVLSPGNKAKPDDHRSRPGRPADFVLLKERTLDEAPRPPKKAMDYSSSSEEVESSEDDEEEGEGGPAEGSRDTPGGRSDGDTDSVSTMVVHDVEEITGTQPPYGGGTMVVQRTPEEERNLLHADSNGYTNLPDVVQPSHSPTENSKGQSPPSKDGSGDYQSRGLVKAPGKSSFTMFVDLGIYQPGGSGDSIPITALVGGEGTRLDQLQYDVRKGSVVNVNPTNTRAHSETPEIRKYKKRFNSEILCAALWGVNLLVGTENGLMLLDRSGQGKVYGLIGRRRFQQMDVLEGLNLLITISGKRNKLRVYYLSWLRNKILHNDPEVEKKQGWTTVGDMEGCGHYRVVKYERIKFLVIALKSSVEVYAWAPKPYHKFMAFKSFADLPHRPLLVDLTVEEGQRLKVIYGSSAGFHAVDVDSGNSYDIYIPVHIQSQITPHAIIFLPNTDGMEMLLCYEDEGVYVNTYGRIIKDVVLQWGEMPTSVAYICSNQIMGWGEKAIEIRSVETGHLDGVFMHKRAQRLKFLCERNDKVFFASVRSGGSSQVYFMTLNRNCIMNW

[3] = target: Mitogen-activated protein kinase kinase kinase kinase 4 (Homo sapiens, UniProt O95819); format: functional
Sequence of Mitogen-activated protein kinase kinase kinase kinase 4 (O95819 whole entry): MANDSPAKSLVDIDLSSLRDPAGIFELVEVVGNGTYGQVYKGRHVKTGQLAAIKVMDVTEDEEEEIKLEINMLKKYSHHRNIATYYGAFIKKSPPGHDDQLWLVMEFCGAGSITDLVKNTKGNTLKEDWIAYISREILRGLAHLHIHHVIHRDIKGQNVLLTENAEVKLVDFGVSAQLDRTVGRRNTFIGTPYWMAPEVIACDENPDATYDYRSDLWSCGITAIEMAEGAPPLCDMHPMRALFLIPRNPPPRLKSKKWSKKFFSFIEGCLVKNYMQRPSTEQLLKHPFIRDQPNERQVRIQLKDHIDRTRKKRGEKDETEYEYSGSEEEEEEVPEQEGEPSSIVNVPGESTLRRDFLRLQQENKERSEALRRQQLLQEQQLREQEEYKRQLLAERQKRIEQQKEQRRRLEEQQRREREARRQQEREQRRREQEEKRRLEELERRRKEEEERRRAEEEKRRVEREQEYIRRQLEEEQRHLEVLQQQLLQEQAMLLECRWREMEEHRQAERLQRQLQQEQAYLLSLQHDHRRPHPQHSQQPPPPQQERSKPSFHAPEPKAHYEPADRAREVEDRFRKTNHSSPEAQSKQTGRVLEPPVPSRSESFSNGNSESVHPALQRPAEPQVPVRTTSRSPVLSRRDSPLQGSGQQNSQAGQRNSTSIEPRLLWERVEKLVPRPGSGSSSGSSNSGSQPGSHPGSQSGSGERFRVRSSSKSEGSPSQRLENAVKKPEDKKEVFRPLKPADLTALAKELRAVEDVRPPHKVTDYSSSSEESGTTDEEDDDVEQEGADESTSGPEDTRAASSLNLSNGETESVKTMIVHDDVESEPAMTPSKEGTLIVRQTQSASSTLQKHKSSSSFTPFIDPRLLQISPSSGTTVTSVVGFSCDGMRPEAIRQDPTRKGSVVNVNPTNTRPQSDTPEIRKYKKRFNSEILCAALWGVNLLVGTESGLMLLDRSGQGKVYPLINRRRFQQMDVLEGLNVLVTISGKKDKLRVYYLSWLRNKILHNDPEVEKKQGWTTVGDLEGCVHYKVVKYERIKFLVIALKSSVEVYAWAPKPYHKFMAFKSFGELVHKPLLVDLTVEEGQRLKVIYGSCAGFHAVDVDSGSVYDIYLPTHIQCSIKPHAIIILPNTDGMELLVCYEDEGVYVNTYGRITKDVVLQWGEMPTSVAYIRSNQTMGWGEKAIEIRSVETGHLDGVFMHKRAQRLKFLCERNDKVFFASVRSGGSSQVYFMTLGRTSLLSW

Cytochrome P450 3A4 = Cytochrome P450 3A4 (Homo sapiens, UniProt P08684); details: Potency;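 also: confirmatory qHTS run detecting inhibitors and substrates of CYP3A4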
[4] = target: T1, Botulinum neurotoxin type A (Clostridium botulinum (strain Hall / ATCC 3502 / NCTC 13319 / Type A), UniProt P0DPI1); test: High-throughput multiplex microsphere dose response for inhibitors of toxin protease, specifically Botulinum neurotoxin light chain A protease, compounds from Cherry Pick 01.; format: functional; details: read-out: EC50_MICROM
T1 sequence (P0DPI1 2-448 limits assumed): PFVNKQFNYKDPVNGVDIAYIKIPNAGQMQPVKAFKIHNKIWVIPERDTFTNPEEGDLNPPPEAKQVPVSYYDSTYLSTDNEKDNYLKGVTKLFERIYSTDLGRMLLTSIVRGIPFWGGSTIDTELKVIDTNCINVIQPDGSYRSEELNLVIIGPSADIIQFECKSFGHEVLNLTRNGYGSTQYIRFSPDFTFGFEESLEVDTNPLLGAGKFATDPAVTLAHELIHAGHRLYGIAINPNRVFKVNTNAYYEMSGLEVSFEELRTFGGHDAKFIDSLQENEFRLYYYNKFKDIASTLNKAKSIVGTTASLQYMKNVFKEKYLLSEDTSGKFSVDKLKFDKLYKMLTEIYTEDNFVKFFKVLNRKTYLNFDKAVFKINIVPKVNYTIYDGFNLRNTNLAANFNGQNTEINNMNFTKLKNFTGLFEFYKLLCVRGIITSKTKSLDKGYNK

[5] = target: T1, Botulinum neurotoxin type A; test: High-throughput multiplex microsphere dose response for inhibitors of toxin protease, specifically Botulinum neurotoxin light chain A protease, compounds from Powder Set 01.; format: functional, Clostridium botulinum A str. ATCC 3502; details: read-out: EC50_MICROM
Lethal factor = Lethal factor (Bacillus anthracis, UniProt P15917); test: High-throughput multiplex microsphere dose response for inhibitors of toxin protease, specifically Lethal Factor protease, compounds from Powder Set 01.; format: functional, Bacillus anthracis str. A2012; details: read-out: EC50_MICROM
[6] = target: T1, Botulinum neurotoxin type A; test: Confirmatory FRET assay using full length substrates for Botulinum neurotoxin light chain A protease, with Powder Set01.; format: functional
[7] = target: Cell division cycle 7-related protein kinase (Homo sapiens, UniProt O00311); format: functional;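 also: value obtained from a kinome-wide kinase panel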
[8] = target: Cyclin-dependent kinase 19 (Homo sapiens, UniProt Q9BWU1); test: Navigating the Kinome. Panel member name: CDC2L6; format: functional
[9] = target: Protein kinase C theta type (Homo sapiens, UniProt Q04759); test: Navigating the Kinome. Panel member name: PRKCQ; format: functional
[10] = target: Ribosomal protein S6 kinase alpha-3 (Homo sapiens, UniProt P51812); format: functional;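 also: measured within a kinome-wide profiling panel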
Sequence of Ribosomal protein S6 kinase alpha-3 (P51812 whole entry): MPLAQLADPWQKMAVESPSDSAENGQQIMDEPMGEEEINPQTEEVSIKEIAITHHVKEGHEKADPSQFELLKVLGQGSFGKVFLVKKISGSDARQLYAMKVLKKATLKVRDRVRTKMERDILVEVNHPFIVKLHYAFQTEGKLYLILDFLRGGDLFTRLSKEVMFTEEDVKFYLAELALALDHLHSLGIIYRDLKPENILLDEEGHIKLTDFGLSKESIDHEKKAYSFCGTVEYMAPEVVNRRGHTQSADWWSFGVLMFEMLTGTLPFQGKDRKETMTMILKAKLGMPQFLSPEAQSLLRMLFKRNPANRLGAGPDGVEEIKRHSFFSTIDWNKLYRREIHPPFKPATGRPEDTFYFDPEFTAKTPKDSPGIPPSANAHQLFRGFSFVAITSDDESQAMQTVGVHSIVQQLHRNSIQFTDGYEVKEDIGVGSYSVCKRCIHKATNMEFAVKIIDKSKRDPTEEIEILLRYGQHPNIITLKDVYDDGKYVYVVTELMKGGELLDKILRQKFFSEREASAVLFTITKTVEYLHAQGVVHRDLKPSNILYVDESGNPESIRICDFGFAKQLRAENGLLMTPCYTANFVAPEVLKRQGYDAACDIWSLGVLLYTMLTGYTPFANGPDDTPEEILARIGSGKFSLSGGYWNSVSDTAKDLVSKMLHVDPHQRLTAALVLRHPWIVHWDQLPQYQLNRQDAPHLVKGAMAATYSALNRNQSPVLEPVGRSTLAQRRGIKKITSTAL

[11] = target: Dual specificity protein kinase CLK2 (Homo sapiens, UniProt P49760); format: functional
[12] = target: Dual specificity mitogen-activated protein kinase kinase 1 (Homo sapiens, UniProt Q02750); test: Navigating the Kinome. Panel member name: MAP2K1; format: functional
[13] = target: Tyrosine-protein kinase JAK2 (Homo sapiens, UniProt O60674); format: functional;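 also: JAK2 tested as one member of a kinase panel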
[14] = target: Serine/threonine-protein kinase TBK1 (Homo sapiens, UniProt Q9UHD2); test: Navigating the Kinome. Panel member name: TBK1; format: functional
[15] = target: 5'-AMP-activated protein kinase catalytic subunit alpha-1 (Homo sapiens, UniProt Q13131); format: functional
[16] = target: ALK tyrosine kinase receptor (Homo sapiens, UniProt Q9UM73); format: functional;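 also: ALK tested as one member of a kinase panel screen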
[17] = target: Proto-oncogene tyrosine-protein kinase receptor Ret (Homo sapiens, UniProt P07949); format: functional;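 also: measured within a kinome-wide profiling panel, RET as the panel member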
[18] = target: Tyrosine-protein kinase receptor TYRO3 (Homo sapiens, UniProt Q06418); format: functional;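 also: TYRO3 value obtained as one member of a kinome-wide profiling panel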
[19] = target: Serine/threonine-protein kinase D3 (Homo sapiens, UniProt O94806); format: functional;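 also: determined within a kinase panel screen, with PRKCN as the panel member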
[20] = target: Tyrosine-protein kinase Lck (Homo sapiens, UniProt P06239); format: functional;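 also: lck was assayed as one member of a kinase panel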
[21] = target: Death-associated protein kinase 3 (Homo sapiens, UniProt O43293); format: functional;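 also: measured as one member of a kinome-wide profiling panel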
Activin receptor type-1 = Activin receptor type-1 (Homo sapiens, UniProt Q04771); test: Navigating the Kinome. Panel member name: ACVR1; format: functional
[22] = target: Mitogen-activated protein kinase 8 (Homo sapiens, UniProt P45983); format: functional;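 also: value comes from one member of a kinome-wide kinase profiling panel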
[23] = target: Serine/threonine-protein kinase pim-1 (Homo sapiens, UniProt P11309); format: functional
[24] = target: Tyrosine-protein kinase BTK (Homo sapiens, UniProt Q06187); format: functional
[25] = target: Serine/threonine-protein kinase PAK 4 (Homo sapiens, UniProt O96013); format: functional;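 also: value obtained within a kinome profiling panel in which PAK4 was one of the panel members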
[26] = target: Fibroblast growth factor receptor 1 (Homo sapiens, UniProt P11362); format: functional
[27] = target: Casein kinase I isoform alpha (Homo sapiens, UniProt P48729); format: functional
[28] = target: Tyrosine-protein kinase JAK3 (Homo sapiens, UniProt P52333); format: functional
[29] = target: Mitogen-activated protein kinase 9 (Homo sapiens, UniProt P45984); format: functional;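 also: value from a kinome panel profiling assay, MAPK9 panel entry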
[30] = target: Serine/threonine-protein kinase TAO1 (Homo sapiens, UniProt Q7L7X3); format: functional
[31] = target: Glycogen synthase kinase-3 alpha (Homo sapiens, UniProt P49840); format: functional;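 also: GSK3A result taken from a broad kinome-wide kinase panel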
[32] = target: Mitogen-activated protein kinase kinase kinase kinase 2 (Homo sapiens, UniProt Q12851); format: functional;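 also: measured as one member of a kinome-wide kinase panel, with MAP4K2 as the panel entry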
[33] = target: Hepatocyte growth factor receptor (Homo sapiens, UniProt P08581); format: functional;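 also: kinase panel profiling across the kinome, with MET as the panel member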
Activated CDC42 kinase 1 = Activated CDC42 kinase 1 (Homo sapiens, UniProt Q07912); test: Navigating the Kinome. Panel member name: ACK1; format: functional
[34] = target: Receptor-type tyrosine-protein kinase FLT3 (Homo sapiens, UniProt P36888); format: functional;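 also: FLT3 was tested as one member of a kinome-wide kinase panel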
[35] = target: Vascular endothelial growth factor receptor 2 (Homo sapiens, UniProt P35968); format: functional
[36] = target: G protein-coupled receptor kinase 5 (Homo sapiens, UniProt P34947); test: Navigating the Kinome. Panel member name: GPRK5; format: functional
[37] = target: Insulin-like growth factor 1 receptor (Homo sapiens, UniProt P08069); test: Navigating the Kinome. Panel member name: IGF1R; format: functional
[38] = target: Dual specificity tyrosine-phosphorylation-regulated kinase 1B (Homo sapiens, UniProt Q9Y463); test: Navigating the Kinome. Panel member name: DYRK1B; format: functional
[39] = target: cAMP-dependent protein kinase catalytic subunit PRKX (Homo sapiens, UniProt P51817); format: functional
Focal adhesion kinase 1 = Focal adhesion kinase 1 (Homo sapiens, UniProt Q05397); format: functional;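 also: measured as one member of a kinome panel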
[40] = target: Platelet-derived growth factor receptor alpha (Homo sapiens, UniProt P16234); test: Navigating the Kinome. Panel member name: PDGFRA; format: functional
[41] = target: Leucine-rich repeat serine/threonine-protein kinase 2 (Homo sapiens, UniProt Q5S007); format: functional;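 also: value from a broad kinome-wide panel profiling study in which LRRK2 was one of the kinases tested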
[42] = target: Rho-associated protein kinase 1 (Homo sapiens, UniProt Q13464); format: functional;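 also: measured within a broad kinome-wide panel profiling many kinases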
[43] = target: Tyrosine-protein kinase Fyn (Homo sapiens, UniProt P06241); format: functional
[44] = target: Cyclin-dependent kinase 8 (Homo sapiens, UniProt P49336); test: Navigating the Kinome. Panel member name: CDK8; format: functional
[45] = target: Cyclin-dependent kinase 7 (Homo sapiens, UniProt P50613); format: functional;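 also: value comes from a kinome-wide kinase profiling panel in which CDK7 is one member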
[46] = target: Vascular endothelial growth factor receptor 1 (Homo sapiens, UniProt P17948); format: functional;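 also: measured within a kinome-wide profiling panel, FLT1 as the panel member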
[47] = target: Glycogen synthase kinase-3 beta (Homo sapiens, UniProt P49841); format: functional;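 also: value comes from a broad kinome profiling panel, with GSK3B as the panel member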
[48] = target: BDNF/NT-3 growth factors receptor (Homo sapiens, UniProt Q16620); format: functional;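 also: NTRK2 measured as one member of a broad kinome-wide kinase profiling panel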
[49] = target: cAMP-dependent protein kinase catalytic subunit alpha (Homo sapiens, UniProt P17612); format: functional
[50] = target: Dual specificity protein kinase CLK4 (Homo sapiens, UniProt Q9HAZ1); format: functional
[51] = target: Macrophage-stimulating protein receptor (Homo sapiens, UniProt Q04912); test: Navigating the Kinome. Panel member name: MST1R; format: functional
[52] = target: Macrophage colony-stimulating factor 1 receptor (Homo sapiens, UniProt P07333); format: functional;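 also: value comes from the Navigating the Kinome screening panel, CSF1R member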
[53] = target: Dual specificity mitogen-activated protein kinase kinase 2 (Homo sapiens, UniProt P36507); test: Navigating the Kinome. Panel member name: MAP2K2; format: functional
[54] = target: Dual specificity tyrosine-phosphorylation-regulated kinase 1A (Homo sapiens, UniProt Q13627); format: functional;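 also: measured against DYRK1A as one member of a broad kinome profiling panel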
[55] = target: Inhibitor of nuclear factor kappa-B kinase subunit epsilon (Homo sapiens, UniProt Q14164); test: Navigating the Kinome. Panel member name: IKBKE; format: functional
[56] = target: Calcium/calmodulin-dependent protein kinase type II subunit alpha (Homo sapiens, UniProt Q9UQM7); test: Navigating the Kinome. Panel member name: CAMK2A; format: functional
[57] = target: Leukocyte tyrosine kinase receptor (Homo sapiens, UniProt P29376); test: Navigating the Kinome. Panel member name: LTK; format: functional
Sequence of Leukocyte tyrosine kinase receptor (P29376 whole entry): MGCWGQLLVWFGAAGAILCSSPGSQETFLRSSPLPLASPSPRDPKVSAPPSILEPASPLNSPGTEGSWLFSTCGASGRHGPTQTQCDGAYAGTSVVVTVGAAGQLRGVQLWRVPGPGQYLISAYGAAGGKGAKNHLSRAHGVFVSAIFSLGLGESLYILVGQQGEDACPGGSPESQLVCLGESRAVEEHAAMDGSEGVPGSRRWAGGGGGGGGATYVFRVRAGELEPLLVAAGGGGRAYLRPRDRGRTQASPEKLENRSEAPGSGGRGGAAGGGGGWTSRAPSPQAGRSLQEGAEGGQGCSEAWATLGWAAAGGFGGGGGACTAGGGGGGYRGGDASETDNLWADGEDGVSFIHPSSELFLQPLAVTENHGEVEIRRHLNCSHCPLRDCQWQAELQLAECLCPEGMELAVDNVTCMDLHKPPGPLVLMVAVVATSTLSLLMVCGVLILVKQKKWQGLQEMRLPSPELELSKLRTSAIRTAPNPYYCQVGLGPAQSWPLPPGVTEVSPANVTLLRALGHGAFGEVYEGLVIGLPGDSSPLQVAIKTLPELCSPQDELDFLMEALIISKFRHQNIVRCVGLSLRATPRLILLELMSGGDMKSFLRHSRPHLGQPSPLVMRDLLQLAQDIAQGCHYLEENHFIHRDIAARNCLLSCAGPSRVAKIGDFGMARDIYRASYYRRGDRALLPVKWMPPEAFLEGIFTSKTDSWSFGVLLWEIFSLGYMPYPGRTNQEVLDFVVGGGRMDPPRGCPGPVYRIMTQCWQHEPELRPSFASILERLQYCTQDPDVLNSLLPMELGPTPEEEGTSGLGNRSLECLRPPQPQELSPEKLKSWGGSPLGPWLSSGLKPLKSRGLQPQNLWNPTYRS

[58] = target: Mitogen-activated protein kinase 14 (Homo sapiens, UniProt Q16539); format: functional;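 also: part of a kinome-wide panel, MAPK14 entry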
[59] = target: Protein kinase C zeta type (Homo sapiens, UniProt Q05513); format: functional;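 also: measured as one member of a broad kinase profiling panel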
[60] = target: Protein kinase C gamma type (Homo sapiens, UniProt P05129); format: functional
[61] = target: MAP kinase-activated protein kinase 3 (Homo sapiens, UniProt Q16644); format: functional;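 also: value comes from a kinome-wide profiling panel in which MAPKAPK3 is one of the panel members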
[62] = target: Cyclin-dependent kinase 1 (Homo sapiens, UniProt P06493); format: functional;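 also: Kinome-wide panel profiling, with the target listed as panel member CDC2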
[63] = target: Lymphokine-activated killer T-cell-originated protein kinase (Homo sapiens, UniProt Q96KB5); format: functional;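 also: value comes from a kinase panel screen in which TOPK was one of the panel members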

Sequence of MAP kinase-activated protein kinase 2 (P49137 whole entry): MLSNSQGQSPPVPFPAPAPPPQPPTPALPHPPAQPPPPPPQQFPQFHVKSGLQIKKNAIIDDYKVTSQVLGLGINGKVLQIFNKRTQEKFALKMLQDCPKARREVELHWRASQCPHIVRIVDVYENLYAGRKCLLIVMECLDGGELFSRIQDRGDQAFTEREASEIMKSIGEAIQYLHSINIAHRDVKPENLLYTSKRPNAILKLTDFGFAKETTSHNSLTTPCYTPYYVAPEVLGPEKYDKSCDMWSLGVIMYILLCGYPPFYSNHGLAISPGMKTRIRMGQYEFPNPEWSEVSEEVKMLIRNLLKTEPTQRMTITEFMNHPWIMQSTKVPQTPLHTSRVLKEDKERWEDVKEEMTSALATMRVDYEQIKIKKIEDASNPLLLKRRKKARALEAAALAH

`Oc1ccc(Nc2nc(-c3ccc(Cl)cc3)cs2)cc1` was tested, and the Ki [1] was 7940 nM (active), the Ki [2] was 3160 nM (active) and the Ki (Misshapen-like kinase 1) was 2510 nM (active). For the same molecule, the Ki [3] was 1000 nM (active) and the AC50 (Cytochrome P450 3A4) was 25100 nM (inconclusive).

In the case of `O=C(Nc1ccc2nc(-c3cccs3)c(-c3cccs3)nc2c1)NC1CC1`, the EC50 [4] is reported as 12300 nM (active), the EC50 [5] is reported as 1500 nM (active) and the EC50 (Lethal factor) is reported as 1600 nM (active). The EC50 [6] was 600 nM (active).

With `Cn1ncc2cc(Nc3ccnc(N)n3)ccc21` the Ki [7] was 398 nM (active) and the Ki [8] was > 100000 nM (inactive).

In the case of `CC(C)Oc1cc(Nc2nc(NC(C)c3ccc(F)cn3)ncc2Cl)n[nH]1` (stereo not given), the Ki [9] is reported as 501 nM (active), the Ki [10] is reported as > 3980 nM (inactive) and the Ki [11] is reported as 2510 nM (active). For the same molecule, the Ki [12] was > 3160 nM (inactive), the Ki [13] was 100 nM (active) and the Ki [14] was > 3160 nM (inactive). The Ki [15] was 158 nM (active), the Ki [16] was 126 nM (active) and the Ki [17] was 39.8 nM (active). The Ki [18] was > 3160 nM (inactive), the Ki [19] was > 3980 nM (inactive) and the Ki [20] was 398 nM (active). For the same molecule, the Ki [21] was > 5010 nM (inactive), the Ki (Activin receptor type-1) was 1580 nM (active) and the Ki [22] was > 5010 nM (inactive). The Ki [23] was > 6310 nM (inactive), the Ki [24] was 1000 nM (active) and the Ki [25] was > 5010 nM (inactive). The Ki [26] was 25.1 nM (active), the Ki [27] was 1000 nM (active) and the Ki [28] was 2000 nM (active). The Ki [29] was > 3980 nM (inactive), the Ki [30] was 2510 nM (active) and the Ki [31] was > 3980 nM (inactive). The Ki [32] was > 2510 nM (inactive), the Ki [33] was > 2510 nM (inactive) and the Ki (Activated CDC42 kinase 1) was 25.1 nM (active). For the same molecule, the Ki [34] was 316 nM (active), the Ki [35] was 501 nM (active) and the Ki [36] was > 3980 nM (inactive). For the same molecule, the Ki [37] was 1260 nM (active), the Ki [38] was > 2510 nM (inactive) and the Ki [39] was > 3160 nM (inactive). The Ki (Focal adhesion kinase 1) was 31.6 nM (active), the Ki [40] was > 2510 nM (inactive) and the Ki [41] was 1000 nM (active). The Ki [42] was 2000 nM (active), the Ki [43] was 398 nM (active) and the Ki [44] was > 3980 nM (inactive). For the same molecule, the Ki [45] was 316 nM (active), the Ki [46] was 1580 nM (active) and the Ki [47] was > 3980 nM (inactive). For the same molecule, the Ki [48] was 1 nM (active), the Ki [49] was > 1260 nM (inactive) and the Ki [50] was 501 nM (active). The Ki [3] was > 5010 nM (inactive), the Ki [51] was 200 nM (active) and the Ki [52] was > 2510 nM (inactive). For the same molecule, the Ki [53] was > 3980 nM (inactive), the Ki [54] was > 2000 nM (inactive) and the Ki [55] was > 3160 nM (inactive). The Ki [56] was 316 nM (active), the Ki [57] was 31.6 nM (active) and the Ki [58] was > 3980 nM (inactive).

In the case of `Oc1cccc(-c2nc(N3CCOCC3)c3oc4ncccc4c3n2)c1` [PI-103], the Ki [59] is reported as > 7940 nM (inactive), the Ki [60] is reported as > 7940 nM (inactive) and the Ki [61] is reported as > 10000 nM (inactive). For the same molecule, the Ki [62] was > 7940 nM (inactive) and the Ki [63] was > 10000 nM (inactive).
